Assay results published in ChEMBL document CHEMBL5154644, “Design, Synthesis, and Structure-Activity Relationship Optimization of Pyrazolopyrimidine Amide Inhibitors of Phosphoinositide 3-Kinase γ (PI3Kγ)” (J Med Chem, 2022).

Key:
[1] = target: T1, Phosphatidylinositol 4,5-bisphosphate 3-kinase catalytic subunit gamma isoform (Homo sapiens, UniProt P48736); assay: Inhibition of PI3Kgamma (unknown origin) in […] stimulated human THP-1 cells assessed as reduction in Akt phosphorylation level at Ser473 residue preincubated for 60 mins followed by rhMCP-1 stimulation and measured after 2 mins by AlphaLisa assay; format: cell-based
[2] = target: T1, Phosphatidylinositol 4,5-bisphosphate 3-kinase catalytic subunit gamma isoform; assay: Inhibition of PI3Kgamma (unknown origin) using PIP2 as substrate preincubated for 1 hr followed by substrate addition and measured after 60 mins in presence of ATP by ADP-glo assay
[3] = Metabolic stability in human hepatocytes assessed as intrinsic clearance per 10^6 cells at 0.5 uM by LC-MS/MS analysis; format: ADME, cell-based, Hepatocyte; settings: read-out: CLH
[4] = Metabolic stability in rat hepatocyte assessed as intrinsic clearance per 10^8 cells at 0.5 uM by LC-MS/MS analysis; format: ADME, cell-based; settings: hepatocytes
[5] = target: T1, Phosphatidylinositol 4,5-bisphosphate 3-kinase catalytic subunit gamma isoform; assay: Inhibition of PI3Kgamma in SDF-1alpha stimulated human whole blood assessed as reduction in phospho-AKT kinase activity preincubated for 1 hr followed by SDF-1alpha stimulation and measured after 2 mins by flow cytometric analysis; format: tissue-based
[6] = target: Phosphatidylinositol 4,5-bisphosphate 3-kinase catalytic subunit alpha isoform (Homo sapiens, UniProt P42336); assay: Inhibition of PI3Kalpha (unknown origin) using PIP2 as substrate preincubated for 1 hr followed by substrate addition and measured after 60 mins in presence of ATP by ADP-glo assay
[7] = target: T2, Phosphatidylinositol 4,5-bisphosphate 3-kinase catalytic subunit delta isoform (Homo sapiens, UniProt O00329); assay: Inhibition of PI3Kdelta (unknown origin) using PIP2 as substrate preincubated for 1 hr followed by substrate addition and measured after 60 mins in presence of ATP by ADP-glo assay
T2 sequence (O00329 whole entry): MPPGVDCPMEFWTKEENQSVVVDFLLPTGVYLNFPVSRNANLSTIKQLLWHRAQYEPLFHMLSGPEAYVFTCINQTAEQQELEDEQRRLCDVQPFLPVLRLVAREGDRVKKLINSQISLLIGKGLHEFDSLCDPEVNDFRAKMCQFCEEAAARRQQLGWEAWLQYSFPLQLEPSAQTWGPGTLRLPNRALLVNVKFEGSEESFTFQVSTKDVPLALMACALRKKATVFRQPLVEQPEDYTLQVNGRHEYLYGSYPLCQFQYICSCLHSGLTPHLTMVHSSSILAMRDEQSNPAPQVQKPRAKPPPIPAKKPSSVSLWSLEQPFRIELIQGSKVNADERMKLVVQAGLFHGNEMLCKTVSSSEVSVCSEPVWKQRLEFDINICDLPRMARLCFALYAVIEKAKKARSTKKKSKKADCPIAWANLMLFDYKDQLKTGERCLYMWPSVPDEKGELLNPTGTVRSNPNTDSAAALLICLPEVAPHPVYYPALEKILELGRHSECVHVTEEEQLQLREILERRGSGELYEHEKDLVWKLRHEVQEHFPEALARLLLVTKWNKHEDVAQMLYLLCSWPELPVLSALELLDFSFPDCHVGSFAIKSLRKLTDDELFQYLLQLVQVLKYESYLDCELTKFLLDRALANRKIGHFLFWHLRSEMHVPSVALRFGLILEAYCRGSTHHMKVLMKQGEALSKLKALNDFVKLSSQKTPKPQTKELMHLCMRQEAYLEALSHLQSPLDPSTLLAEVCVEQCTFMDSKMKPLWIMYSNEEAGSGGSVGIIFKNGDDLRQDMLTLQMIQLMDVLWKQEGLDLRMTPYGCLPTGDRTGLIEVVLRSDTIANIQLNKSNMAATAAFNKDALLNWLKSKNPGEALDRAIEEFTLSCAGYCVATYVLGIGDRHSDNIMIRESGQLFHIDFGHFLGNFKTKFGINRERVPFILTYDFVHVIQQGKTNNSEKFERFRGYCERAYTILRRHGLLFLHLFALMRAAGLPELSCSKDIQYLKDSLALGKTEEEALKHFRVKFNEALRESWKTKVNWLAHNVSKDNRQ

Homo sapiens [8] = species: Homo sapiens; assay: Selectivity ratio of IC50 for inhibition of PI3Kalpha (unknown origin) to IC50 for inhibition of PI3Kgamma (unknown origin)
Homo sapiens [9] = species: Homo sapiens; assay: Selectivity ratio of IC50 for inhibition of PI3Kdelta (unknown origin) to IC50 for inhibition of PI3Kgamma (unknown origin)
[10] = Hepatic clearance in Sprague-Dawley rat by LC-MS/MS analysis; format: ADME; settings: in vivo
[11] = target: Phosphatidylinositol 4,5-bisphosphate 3-kinase catalytic subunit beta isoform (Homo sapiens, UniProt P42338); assay: Inhibition of PI3Kbeta (unknown origin) using PIP2 as substrate preincubated for 1 hr followed by substrate addition and measured after 60 mins in presence of ATP by ADP-glo assay
Homo sapiens [12] = species: Homo sapiens; assay: Selectivity ratio of IC50 for inhibition of PI3Kbeta (unknown origin) to IC50 for inhibition of PI3Kgamma (unknown origin)
hERG [13] = target: T3, hERG (Homo sapiens, UniProt Q12809); assay: Inhibition of human ERG at 3 uM by patch clamp assay relative to control; format: toxicity
hERG [14] = target: T3, hERG; assay: Inhibition of human ERG at 10 uM by patch clamp assay relative to control; format: toxicity
CYP3A4 = CYP3A4 (Homo sapiens, UniProt P08684); assay: in vitro; settings: human liver microsomes, probe midazolam
CYP3A4, sequence (P08684 whole entry): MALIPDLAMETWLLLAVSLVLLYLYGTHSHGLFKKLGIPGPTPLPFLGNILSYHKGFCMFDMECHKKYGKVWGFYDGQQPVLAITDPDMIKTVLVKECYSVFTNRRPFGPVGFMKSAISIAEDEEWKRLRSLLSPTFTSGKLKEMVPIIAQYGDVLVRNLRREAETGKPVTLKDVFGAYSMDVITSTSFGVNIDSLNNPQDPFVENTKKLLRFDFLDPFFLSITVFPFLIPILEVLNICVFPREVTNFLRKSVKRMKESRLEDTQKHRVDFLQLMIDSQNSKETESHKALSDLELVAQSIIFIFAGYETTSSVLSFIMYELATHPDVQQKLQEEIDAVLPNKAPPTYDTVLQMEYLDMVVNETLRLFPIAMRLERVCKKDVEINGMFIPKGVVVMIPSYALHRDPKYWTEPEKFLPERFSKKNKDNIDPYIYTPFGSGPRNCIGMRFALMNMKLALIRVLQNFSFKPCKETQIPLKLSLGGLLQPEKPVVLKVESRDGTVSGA
Description: Time dependent inhibition of CYP3A4 in human liver microsomes at 10 uM using midazolam as substrate preincubated for 30 mins in presence of NADPH by LC/MS/MS analysis relative to control

T3 sequence (Q12809 whole entry): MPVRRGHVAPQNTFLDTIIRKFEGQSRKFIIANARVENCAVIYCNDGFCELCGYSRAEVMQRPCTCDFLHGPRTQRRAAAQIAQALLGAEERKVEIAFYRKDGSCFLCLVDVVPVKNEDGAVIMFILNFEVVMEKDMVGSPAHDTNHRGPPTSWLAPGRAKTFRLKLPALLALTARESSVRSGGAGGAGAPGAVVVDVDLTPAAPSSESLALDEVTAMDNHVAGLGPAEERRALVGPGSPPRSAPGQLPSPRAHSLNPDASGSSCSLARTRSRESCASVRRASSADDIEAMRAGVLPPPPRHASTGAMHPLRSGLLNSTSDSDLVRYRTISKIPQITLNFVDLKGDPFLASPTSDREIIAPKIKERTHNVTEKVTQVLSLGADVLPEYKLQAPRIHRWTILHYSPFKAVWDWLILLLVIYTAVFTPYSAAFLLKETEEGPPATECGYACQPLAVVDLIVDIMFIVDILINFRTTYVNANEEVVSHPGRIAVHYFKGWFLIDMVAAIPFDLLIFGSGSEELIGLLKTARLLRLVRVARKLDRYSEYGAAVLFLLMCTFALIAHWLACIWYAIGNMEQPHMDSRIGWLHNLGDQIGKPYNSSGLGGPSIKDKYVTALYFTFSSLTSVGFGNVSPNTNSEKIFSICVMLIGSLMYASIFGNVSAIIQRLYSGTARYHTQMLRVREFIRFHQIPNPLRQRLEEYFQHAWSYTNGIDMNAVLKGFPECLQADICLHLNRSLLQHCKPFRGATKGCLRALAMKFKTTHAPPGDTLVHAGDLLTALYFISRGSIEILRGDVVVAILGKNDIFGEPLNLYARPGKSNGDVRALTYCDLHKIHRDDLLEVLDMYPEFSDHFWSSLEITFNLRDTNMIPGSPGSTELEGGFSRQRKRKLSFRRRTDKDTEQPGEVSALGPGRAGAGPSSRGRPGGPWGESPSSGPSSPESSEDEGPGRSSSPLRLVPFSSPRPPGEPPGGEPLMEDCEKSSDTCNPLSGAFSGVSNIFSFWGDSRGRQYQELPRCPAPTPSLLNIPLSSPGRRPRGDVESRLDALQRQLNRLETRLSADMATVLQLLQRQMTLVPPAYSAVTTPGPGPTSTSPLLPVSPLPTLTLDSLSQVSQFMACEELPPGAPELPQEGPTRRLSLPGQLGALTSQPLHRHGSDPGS
Phosphatidylinositol 4,5-bisphosphate 3-kinase catalytic subunit alpha isoform, sequence (P42336 whole entry, canonical isoform): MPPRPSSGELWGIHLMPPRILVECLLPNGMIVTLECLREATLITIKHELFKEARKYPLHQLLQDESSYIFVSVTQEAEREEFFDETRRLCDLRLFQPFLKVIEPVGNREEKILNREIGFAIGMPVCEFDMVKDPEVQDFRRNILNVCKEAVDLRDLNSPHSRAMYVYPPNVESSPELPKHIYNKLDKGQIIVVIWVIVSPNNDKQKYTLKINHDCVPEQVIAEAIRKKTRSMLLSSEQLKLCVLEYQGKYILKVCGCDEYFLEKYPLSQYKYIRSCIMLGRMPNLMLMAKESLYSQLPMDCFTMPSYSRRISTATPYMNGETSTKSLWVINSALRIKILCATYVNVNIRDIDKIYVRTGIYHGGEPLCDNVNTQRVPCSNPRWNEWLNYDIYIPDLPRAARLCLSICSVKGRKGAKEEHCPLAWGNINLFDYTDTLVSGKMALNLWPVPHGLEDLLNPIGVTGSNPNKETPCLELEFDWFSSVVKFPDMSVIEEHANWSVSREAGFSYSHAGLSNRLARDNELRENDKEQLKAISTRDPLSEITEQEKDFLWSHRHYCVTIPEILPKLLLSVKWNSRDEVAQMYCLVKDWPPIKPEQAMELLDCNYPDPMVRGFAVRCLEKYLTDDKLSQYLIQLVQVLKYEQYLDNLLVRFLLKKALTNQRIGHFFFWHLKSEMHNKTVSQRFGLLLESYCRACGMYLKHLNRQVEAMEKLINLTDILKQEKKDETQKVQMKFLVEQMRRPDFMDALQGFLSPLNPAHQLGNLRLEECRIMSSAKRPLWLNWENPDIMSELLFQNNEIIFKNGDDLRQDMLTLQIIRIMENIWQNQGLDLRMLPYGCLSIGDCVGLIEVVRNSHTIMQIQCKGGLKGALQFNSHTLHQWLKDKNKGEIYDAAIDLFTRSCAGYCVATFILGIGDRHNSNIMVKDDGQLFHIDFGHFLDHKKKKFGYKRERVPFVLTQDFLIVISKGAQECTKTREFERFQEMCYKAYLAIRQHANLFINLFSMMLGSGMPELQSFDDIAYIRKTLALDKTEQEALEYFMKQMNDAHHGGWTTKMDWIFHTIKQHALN
T1 sequence (P48736 whole entry, canonical isoform): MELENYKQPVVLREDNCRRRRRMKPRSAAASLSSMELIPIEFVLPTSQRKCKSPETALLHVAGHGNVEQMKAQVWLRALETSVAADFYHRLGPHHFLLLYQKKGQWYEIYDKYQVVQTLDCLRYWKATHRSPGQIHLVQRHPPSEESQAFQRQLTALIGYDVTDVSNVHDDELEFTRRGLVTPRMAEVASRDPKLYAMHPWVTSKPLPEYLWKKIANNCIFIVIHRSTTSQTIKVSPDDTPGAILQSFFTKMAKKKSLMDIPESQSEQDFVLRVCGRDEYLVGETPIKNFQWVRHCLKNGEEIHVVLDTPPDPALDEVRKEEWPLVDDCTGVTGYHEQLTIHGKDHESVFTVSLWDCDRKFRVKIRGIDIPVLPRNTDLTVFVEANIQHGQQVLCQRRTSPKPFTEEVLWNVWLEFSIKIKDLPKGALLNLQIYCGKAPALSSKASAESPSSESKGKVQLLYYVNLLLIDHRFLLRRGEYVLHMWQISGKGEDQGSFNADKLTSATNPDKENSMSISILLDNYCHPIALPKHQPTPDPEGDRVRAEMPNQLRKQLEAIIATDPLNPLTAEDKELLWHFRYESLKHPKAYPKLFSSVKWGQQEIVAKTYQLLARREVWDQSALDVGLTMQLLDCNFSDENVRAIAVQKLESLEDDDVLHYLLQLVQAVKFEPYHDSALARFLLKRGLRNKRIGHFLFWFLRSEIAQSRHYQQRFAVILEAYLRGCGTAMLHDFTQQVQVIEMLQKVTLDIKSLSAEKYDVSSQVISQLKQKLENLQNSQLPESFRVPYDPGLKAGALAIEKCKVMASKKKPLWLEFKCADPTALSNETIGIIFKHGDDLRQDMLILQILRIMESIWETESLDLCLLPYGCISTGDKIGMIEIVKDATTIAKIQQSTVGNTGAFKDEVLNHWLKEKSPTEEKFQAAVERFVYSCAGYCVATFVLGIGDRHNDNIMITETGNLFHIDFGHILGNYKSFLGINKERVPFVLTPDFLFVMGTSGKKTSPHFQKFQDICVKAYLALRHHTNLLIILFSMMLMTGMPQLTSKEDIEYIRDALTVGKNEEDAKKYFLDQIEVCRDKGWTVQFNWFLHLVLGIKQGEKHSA
Phosphatidylinositol 4,5-bisphosphate 3-kinase catalytic subunit beta isoform, sequence (P42338 whole entry, canonical isoform): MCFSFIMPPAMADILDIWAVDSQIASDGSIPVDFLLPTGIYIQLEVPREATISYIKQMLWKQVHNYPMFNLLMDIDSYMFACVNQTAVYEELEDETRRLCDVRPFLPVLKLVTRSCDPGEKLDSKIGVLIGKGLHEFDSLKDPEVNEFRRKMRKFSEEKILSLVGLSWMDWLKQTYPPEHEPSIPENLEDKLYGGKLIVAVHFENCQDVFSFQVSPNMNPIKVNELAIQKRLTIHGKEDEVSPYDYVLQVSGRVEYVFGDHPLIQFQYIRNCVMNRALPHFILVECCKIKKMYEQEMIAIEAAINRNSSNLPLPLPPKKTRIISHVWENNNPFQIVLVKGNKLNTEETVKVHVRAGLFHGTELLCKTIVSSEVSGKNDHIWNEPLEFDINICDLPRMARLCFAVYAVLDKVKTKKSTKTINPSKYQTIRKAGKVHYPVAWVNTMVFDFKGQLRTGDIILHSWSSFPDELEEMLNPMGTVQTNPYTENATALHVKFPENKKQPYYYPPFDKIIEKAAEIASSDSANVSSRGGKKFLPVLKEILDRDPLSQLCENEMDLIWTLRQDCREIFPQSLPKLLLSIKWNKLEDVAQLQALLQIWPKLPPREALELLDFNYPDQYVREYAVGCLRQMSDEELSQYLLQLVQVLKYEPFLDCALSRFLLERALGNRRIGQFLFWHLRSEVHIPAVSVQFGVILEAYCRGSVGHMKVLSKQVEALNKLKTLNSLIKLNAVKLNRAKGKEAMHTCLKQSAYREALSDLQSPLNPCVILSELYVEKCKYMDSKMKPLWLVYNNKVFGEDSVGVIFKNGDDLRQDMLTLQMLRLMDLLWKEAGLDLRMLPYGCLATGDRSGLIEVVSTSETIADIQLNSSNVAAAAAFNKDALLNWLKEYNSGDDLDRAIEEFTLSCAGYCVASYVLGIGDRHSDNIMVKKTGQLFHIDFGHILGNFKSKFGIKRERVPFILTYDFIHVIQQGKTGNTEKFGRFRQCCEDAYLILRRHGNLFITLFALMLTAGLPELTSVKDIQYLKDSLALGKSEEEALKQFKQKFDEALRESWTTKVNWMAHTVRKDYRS

SMILES | IC50 [1] | IC50 [2] | hepatocyte CLint at 0.5 µM [3] | hepatocyte intrinsic clearance [4] | IC50 [5] | IC50 [6] | IC50 [7] | Ratio IC50 (Homo sapiens [8]) | Ratio IC50 (Homo sapiens [9]) | CLH [10] | IC50 [11] | Ratio IC50 (Homo sapiens [12]) | inhibition at 3 µM (hERG [13]) | inhibition at 10 µM (hERG [14]) | inhibition at 30 min, 10 µM (CYP3A4)
C[C@H](N1Cc2cc(-c3ccn4nc(N)c(C(=O)N[C@@H](CO)C5CC5)c4n3)cc(C3CC3)c2C1=O)C(F)(F)F | 80 nM | 2.5 nM | 13.3 µL/min/1e6 cells | 1.69 µL/min | 1300 nM | > 10000 nM | 3980 nM | > 3970 | 1580 |  |  |  |  |  | 
C[C@H](N1Cc2cc(-c3ccn4nc(N)c(C(=O)N[C@@H](CO)C5CC5)c4n3)cc(Cl)c2C1=O)C(F)(F)F | 83 nM | 3.1 nM | 3.18 µL/min/1e6 cells | 2.98 µL/min | 600 nM | > 10000 nM | 4640 nM | > 3140 | 1460 |  |  |  |  |  | 
C[C@H](N1Cc2cc(-c3ccn4nc(N)c(C(=O)N[C@@H](CO)C5CC5)c4n3)cc(NS(C)(=O)=O)c2C1=O)C(F)(F)F | 72 nM | 3.5 nM | 6.31 µL/min/1e6 cells | 2.48 µL/min | 1300 nM | 1640 nM | 825 nM | 474 | 238 |  |  |  |  |  | 
C[C@H](N1Cc2cc(-c3ccn4nc(N)c(C(=O)N[C@H]5CC[C@@](C)(O)CC5)c4n3)cc(NS(C)(=O)=O)c2C1=O)C(F)(F)F | 31 nM | 3.2 nM | 2.44 µL/min/1e6 cells | 3.38 µL/min | 800 nM | 194 nM | 146 nM | 61 | 46 |  |  |  |  |  | 
C[C@@H](C1CC1)N1Cc2cc(-c3ccn4nc(N)c(C(=O)N[C@H]5CC[C@](O)(C(F)(F)F)CC5)c4n3)cc(NS(C)(=O)=O)c2C1=O | 52 nM | 2.1 nM | 1.9 µL/min/1e6 cells | 11 µL/min | 210 nM | 4030 nM | 1060 nM | 1880 |  | 23.3 mL/min/kg | 9780 nM | 4560 | 45% | 68% | 17%
C[C@@H](C1CC1)N1Cc2cc(-c3ccn4nc(N)c(C(=O)N[C@@H](CO)C5CC5)c4n3)cc(NS(C)(=O)=O)c2C1=O | 33 nM | 0.8 nM | 4.09 µL/min/1e6 cells | < 1.2 µL/min | 260 nM | 1200 nM | 991 nM | 1470 |  |  |  |  |  |  | 35%
C[C@H](N1Cc2cc(-c3ccn4nc(N)c(C(=O)N[C@@H](CO)C5CC5)c4n3)cc(OC(F)F)c2C1=O)C(F)(F)F | 68 nM | 3.4 nM | 7.17 µL/min/1e6 cells | 8.28 µL/min | 600 nM | 1320 nM | 419 nM | 385 | 122 |  |  |  |  |  | 
C[C@@H](C1CC1)N1Cc2cc(-c3ccn4nc(N)c(C(=O)N[C@H]5CC[C@](C)(O)CC5)c4n3)cc(NS(C)(=O)=O)c2C1=O | 22 nM | 0.9 nM | 3.39 µL/min/1e6 cells | 8.24 µL/min | 420 nM | 326 nM | 268 nM | 362 |  | 30 mL/min/kg | 7570 nM | 8410 |  |  | 12%
C[C@@H](C1CC1)N1Cc2cc(-c3ccn4nc(N)c(C(=O)N[C@@H](CO)C5CC5)c4n3)cc(OC(F)(F)F)c2C1=O | 72 nM | 2.8 nM | 4.05 µL/min/1e6 cells | < 1.2 µL/min | 750 nM | 2060 nM | 1790 nM | 733 |  | 21.7 mL/min/kg | 8550 nM | 3040 |  |  | 6%
C[C@@H](C1CC1)N1Cc2cc(-c3ccn4nc(N)c(C(=O)N[C@@H](CO)C5CC5)c4n3)cc(OC(F)F)c2C1=O | 48 nM | 3.1 nM | 4.35 µL/min/1e6 cells | 8.42 µL/min | 510 nM | 1910 nM | 3110 nM | 611 |  | 15 mL/min/kg | 29400 nM | 9400 |  | 21% | 18%
